What was measured:
[1] = molecular target: T1, cysteines in MDA-MB-231 and Ramos cells (Homo sapiens, UniProt P25205); experiment: Competitive isoTOP-ABPP in situ (fragment-treated cells); type: cell-based
T1 sequence (P25205 1-808): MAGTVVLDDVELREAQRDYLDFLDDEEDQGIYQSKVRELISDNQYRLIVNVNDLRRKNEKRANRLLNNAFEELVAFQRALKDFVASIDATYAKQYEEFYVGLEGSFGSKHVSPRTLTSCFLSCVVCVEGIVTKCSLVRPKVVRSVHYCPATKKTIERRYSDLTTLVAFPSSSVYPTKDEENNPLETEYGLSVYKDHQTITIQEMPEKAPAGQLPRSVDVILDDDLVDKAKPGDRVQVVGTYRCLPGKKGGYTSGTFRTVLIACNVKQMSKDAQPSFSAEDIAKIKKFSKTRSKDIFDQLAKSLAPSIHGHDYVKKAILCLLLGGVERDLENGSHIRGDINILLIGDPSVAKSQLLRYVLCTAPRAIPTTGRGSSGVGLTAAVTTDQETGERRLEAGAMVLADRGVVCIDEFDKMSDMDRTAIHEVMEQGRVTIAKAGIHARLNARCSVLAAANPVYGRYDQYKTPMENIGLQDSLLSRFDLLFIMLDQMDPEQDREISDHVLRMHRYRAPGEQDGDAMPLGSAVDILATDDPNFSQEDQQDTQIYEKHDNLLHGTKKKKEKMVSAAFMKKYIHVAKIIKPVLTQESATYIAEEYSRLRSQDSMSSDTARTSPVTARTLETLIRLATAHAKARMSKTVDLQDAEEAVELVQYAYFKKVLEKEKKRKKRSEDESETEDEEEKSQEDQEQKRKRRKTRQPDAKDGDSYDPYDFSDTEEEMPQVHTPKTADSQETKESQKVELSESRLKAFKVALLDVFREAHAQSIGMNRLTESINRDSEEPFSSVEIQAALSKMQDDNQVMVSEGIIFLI

[2] = molecular target: T2, cysteines in MDA-MB-231 and Ramos cells (Homo sapiens, UniProt P10599); experiment: as above; type: cell-based
T2 sequence (P10599 1-105): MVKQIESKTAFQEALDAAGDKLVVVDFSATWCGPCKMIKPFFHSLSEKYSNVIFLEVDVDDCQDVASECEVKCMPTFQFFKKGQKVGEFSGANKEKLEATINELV

[3] = molecular target: T3, cysteines in MDA-MB-231 and Ramos cells (Homo sapiens, UniProt Q13428); experiment: as above; type: cell-based
T3 sequence (Q13428 1-1488): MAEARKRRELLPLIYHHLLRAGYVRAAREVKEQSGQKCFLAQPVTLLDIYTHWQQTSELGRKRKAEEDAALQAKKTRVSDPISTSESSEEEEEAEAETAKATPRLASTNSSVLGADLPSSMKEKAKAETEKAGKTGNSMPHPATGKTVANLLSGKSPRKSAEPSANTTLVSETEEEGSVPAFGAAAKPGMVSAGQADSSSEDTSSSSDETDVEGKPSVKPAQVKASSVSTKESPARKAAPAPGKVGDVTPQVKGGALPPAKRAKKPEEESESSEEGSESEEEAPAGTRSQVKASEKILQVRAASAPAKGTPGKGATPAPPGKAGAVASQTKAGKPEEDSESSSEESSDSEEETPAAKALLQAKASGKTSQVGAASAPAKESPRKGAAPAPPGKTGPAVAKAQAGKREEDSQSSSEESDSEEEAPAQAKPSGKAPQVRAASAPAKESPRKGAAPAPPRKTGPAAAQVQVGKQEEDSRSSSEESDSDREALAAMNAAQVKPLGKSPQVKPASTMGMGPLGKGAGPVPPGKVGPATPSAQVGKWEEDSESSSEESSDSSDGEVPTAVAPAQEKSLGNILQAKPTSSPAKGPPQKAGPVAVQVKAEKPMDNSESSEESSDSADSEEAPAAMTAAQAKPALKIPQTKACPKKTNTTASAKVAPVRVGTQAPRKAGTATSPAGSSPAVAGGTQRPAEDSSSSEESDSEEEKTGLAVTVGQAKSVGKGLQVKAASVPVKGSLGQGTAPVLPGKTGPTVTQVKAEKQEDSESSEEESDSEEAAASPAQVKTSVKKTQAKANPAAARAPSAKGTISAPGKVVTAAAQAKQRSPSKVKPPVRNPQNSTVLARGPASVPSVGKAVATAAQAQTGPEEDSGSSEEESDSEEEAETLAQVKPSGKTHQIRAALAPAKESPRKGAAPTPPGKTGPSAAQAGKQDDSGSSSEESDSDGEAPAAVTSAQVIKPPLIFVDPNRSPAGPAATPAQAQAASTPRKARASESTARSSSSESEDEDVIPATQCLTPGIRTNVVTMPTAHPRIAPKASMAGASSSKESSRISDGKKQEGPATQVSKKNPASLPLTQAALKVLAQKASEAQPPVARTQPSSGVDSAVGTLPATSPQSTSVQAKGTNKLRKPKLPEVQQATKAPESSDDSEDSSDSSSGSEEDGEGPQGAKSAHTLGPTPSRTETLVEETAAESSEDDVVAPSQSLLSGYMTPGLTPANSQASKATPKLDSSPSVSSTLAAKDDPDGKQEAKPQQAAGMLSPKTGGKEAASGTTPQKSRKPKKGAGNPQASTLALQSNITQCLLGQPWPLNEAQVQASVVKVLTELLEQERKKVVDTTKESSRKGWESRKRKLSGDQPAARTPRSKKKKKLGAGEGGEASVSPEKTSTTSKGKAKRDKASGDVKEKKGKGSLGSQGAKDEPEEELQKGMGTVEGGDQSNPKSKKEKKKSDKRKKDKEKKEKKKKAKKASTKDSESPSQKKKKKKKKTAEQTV

[4] = molecular target: cysteines in MDA-MB-231 and Ramos cells (Homo sapiens, UniProt Q8TAQ2); experiment: as above; type: cell-based
Chain of cysteines in MDA-MB-231 and Ramos cells (Homo sapiens, UniProt Q8TAQ2) (Q8TAQ2 whole entry): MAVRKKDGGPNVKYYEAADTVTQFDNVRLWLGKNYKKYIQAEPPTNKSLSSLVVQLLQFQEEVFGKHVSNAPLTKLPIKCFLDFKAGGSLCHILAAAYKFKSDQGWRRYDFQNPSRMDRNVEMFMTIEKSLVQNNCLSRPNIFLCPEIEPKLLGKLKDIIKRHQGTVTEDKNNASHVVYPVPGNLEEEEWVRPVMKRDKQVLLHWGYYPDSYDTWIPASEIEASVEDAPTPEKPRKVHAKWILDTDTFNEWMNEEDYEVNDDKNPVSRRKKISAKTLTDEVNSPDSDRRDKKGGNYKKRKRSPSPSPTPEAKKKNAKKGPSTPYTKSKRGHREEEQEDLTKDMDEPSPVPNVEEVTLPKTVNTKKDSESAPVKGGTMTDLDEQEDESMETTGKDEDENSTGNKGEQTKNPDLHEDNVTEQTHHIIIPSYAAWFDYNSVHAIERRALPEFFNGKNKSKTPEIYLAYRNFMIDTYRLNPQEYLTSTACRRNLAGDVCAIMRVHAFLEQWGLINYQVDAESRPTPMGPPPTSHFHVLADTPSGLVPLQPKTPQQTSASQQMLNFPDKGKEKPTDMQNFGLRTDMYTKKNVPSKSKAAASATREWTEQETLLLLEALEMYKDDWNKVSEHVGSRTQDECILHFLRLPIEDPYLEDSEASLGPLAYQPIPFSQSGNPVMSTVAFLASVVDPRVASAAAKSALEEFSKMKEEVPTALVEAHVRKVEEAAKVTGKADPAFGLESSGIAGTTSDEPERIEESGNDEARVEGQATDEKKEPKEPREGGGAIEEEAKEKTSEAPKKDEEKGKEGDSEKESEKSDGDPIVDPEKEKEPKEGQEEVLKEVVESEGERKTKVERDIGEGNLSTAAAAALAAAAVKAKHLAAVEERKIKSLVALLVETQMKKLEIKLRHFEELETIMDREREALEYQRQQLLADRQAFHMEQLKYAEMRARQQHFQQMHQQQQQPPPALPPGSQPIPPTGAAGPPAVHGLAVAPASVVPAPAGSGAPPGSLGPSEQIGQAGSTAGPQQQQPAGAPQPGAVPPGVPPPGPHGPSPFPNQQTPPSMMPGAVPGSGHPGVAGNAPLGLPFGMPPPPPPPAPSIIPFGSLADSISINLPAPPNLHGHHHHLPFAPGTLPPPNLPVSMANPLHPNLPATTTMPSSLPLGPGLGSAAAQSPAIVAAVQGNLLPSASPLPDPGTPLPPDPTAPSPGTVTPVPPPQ

[5] = molecular target: O114933_C98 (Homo sapiens, UniProt O14933); experiment: Competitive isoTOP-ABPP, cell lysates; type: binding
Chain of O114933_C98 (O14933 whole entry): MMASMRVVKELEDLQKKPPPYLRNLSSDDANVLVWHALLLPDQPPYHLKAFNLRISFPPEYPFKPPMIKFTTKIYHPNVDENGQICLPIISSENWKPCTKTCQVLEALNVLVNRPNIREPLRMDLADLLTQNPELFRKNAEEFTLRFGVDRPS

SMILES | isoTOP-ABPP ratio P25205_C119 ([1]; 200 μM, insitu, 231) | isoTOP-ABPP ratio P10599_C32 ([2]; 200 μM, insitu, 231) | isoTOP-ABPP ratio Q13428_C38 ([3]; 200 μM, insitu, 231) | isoTOP-ABPP ratio Q13428_C1298 ([3]; 200 μM, insitu, 231) | isoTOP-ABPP ratio Q8TAQ2_C145 ([4]; 200 μM, insitu, 231) | isoTOP-ABPP ratio (reactivity profile), O114933_C98 ([5]; 500 μm in-vitro ramos) | also measured
COc1ccc2c(c1)CCCN2C(=O)CCl [compound 2] |  |  |  |  |  |  | isoTOP-ABPP reactivity P25205_C119 MCM3 ([1]; 200 μM, insitu, 231): 3.5; isoTOP-ABPP reactivity P10599_C32 TXN ([2]; 200 μM, insitu, 231): 7.9; isoTOP-ABPP reactivity Q13428_C38 TCOF1 ([3]; 200 μM, insitu, 231): 3.3; isoTOP-ABPP reactivity Q13428_C1298 TCOF1 ([3]; 200 μM, insitu, 231): 4.7; isoTOP-ABPP reactivity Q8TAQ2_C145 SMARCC2 ([4]; 200 μM, insitu, 231): 4.6
CC(C)CCOCCNC(=O)CCl [compound 27] | 1.0 | 2.5 | 1.3 | 1.0 | 2.1 | 1.0 | isoTOP-ABPP ratio (reactivity profile), O114933_C98 ([5]; 500 μm in-vitro ramos_231): 1.2
O=C(CCl)N1CCOCC1 [compound 22] |  |  |  |  |  | 2.0 | 
O=C(CCl)NC(=O)NC12CC3CC(CC(C3)C1)C2 [compound 12] | 1.0 | 20.0 | 4.7 | 20.0 |  |  | 
O=C(CCl)NC12CC3CC(CC(C3)C1)C2 [compound 21] | 1.1 | 3.9 | 1.5 |  | 1.6 |  | 
Cc1ccc(C=C(C#N)C(=O)NCCN2CCOCC2)cc1 [compound 41] | 0.9 | 0.4 | 1.1 | 1.0 | 1.2 |  | 
Cn1cc(S(=O)(=O)N2CCOCC2)cc1C(=O)NC(=O)CCl [compound 11] |  |  |  |  |  |  | isoTOP-ABPP ratio P25205_C119 ([1]; 100 μM in situ 231): 0.7; isoTOP-ABPP ratio P10599_C32 ([2]; 100 μM in situ 231): 13.0; isoTOP-ABPP ratio Q13428_C38 ([3]; 100 μM in situ 231): 1.1; isoTOP-ABPP ratio Q13428_C1298 ([3]; 100 μM in situ 231): 0.8; isoTOP-ABPP ratio Q8TAQ2_C145 ([4]; 100 μM in situ 231): 7.6
O=C(CCl)N1CCC(C(O)(c2ccccc2)c2ccccc2)CC1 [compound 20] |  |  |  |  |  | 3.9 | 
N#C/C(=C\c1cc(C(F)(F)F)cc(C(F)(F)F)c1)C(N)=O [compound 23] |  |  |  |  |  | 1.2 | isoTOP-ABPP ratio (reactivity profile), O114933_C98 ([5]; 500 μm in-vitro ramos_231): 0.7
CC1CCc2ccccc2N1C(=O)CCl (stereo not shown) [compound 45] | 6.2 | 5.7 | 2.8 | 4.7 | 2.9 |  | 
C=CC(=O)Nc1cc(F)c(N2CCN(C(=O)OC(C)(C)C)CC2)c(F)c1 [compound 38] | 0.9 | 2.1 | 1.1 | 2.0 | 1.3 |  | 
COc1cc2c(cc1OC)CN(C(=O)CCl)CC2 [compound 8] |  |  |  |  |  |  | isoTOP-ABPP reactivity P25205_C119 MCM3 ([1]; 200 μM, insitu, 231): 3.5; isoTOP-ABPP reactivity P10599_C32 TXN ([2]; 200 μM, insitu, 231): 5.9; isoTOP-ABPP reactivity Q13428_C38 TCOF1 ([3]; 200 μM, insitu, 231): 2.0; isoTOP-ABPP reactivity Q13428_C1298 TCOF1 ([3]; 200 μM, insitu, 231): 20.0
CCN(CC)c1ccc(S(N)(=O)=O)cc1NC(=O)CCl [compound 30] |  |  |  |  |  | 1.3 | 
O=C(CCl)NCCc1c[nH]c2ccccc12 [compound 13] | 1.1 | 7.9 | 1.6 |  | 1.1 |  | isoTOP-ABPP ratio P25205_C119 ([1]; 200 μM, insitu, ramos): 1.3; isoTOP-ABPP ratio P10599_C32 ([2]; 200 μM, insitu, ramos): 4.1
O=C(CCl)N1CCC(Cc2ccccc2)CC1 [compound 9] |  |  |  |  |  |  | isoTOP-ABPP reactivity P25205_C119 MCM3 ([1]; 200 μM, insitu, 231): 1.9; isoTOP-ABPP reactivity P10599_C32 TXN ([2]; 200 μM, insitu, 231): 20.0
COc1ccc(C2CC(c3cccs3)=NN2C(=O)CCl)cc1 (stereo not shown) [compound 4] |  |  |  |  |  |  | isoTOP-ABPP reactivity P25205_C119 MCM3 ([1]; 100 μM in situ 231): 4.3; isoTOP-ABPP reactivity P10599_C32 TXN ([2]; 100 μM in situ 231): 3.3; isoTOP-ABPP reactivity Q13428_C38 TCOF1 ([3]; 100 μM in situ 231): 2.8; isoTOP-ABPP reactivity Q13428_C1298 TCOF1 ([3]; 100 μM in situ 231): 5.6; isoTOP-ABPP reactivity Q8TAQ2_C145 SMARCC2 ([4]; 100 μM in situ 231): 3.1
O=C(CCl)N1CCN(CC(=O)N2CCOCC2)CC1 [compound 29] |  |  |  |  |  |  | isoTOP-ABPP ratio P25205_C119 ([1]; 200 μM, insitu, ramos): 1.3; isoTOP-ABPP ratio P10599_C32 ([2]; 200 μM, insitu, ramos): 1.9; isoTOP-ABPP ratio Q13428_C38 ([3]; 200 μM, insitu, ramos): 1.5; isoTOP-ABPP ratio Q8TAQ2_C145 ([4]; 200 μM, insitu, ramos): 2.7

The next lines start with results.

isoTOP-ABPP ratio P25205_C119 ([1]; 200 μM, insitu, 231) | isoTOP-ABPP ratio P10599_C32 ([2]; 200 μM, insitu, 231) | isoTOP-ABPP ratio Q13428_C38 ([3]; 200 μM, insitu, 231) | isoTOP-ABPP ratio Q13428_C1298 ([3]; 200 μM, insitu, 231) | isoTOP-ABPP ratio Q8TAQ2_C145 ([4]; 200 μM, insitu, 231) | isoTOP-ABPP ratio (reactivity profile), O114933_C98 ([5]; 500 μm in-vitro ramos) | SMILES | also measured
2.3 | 3.8 | 4.2 | 5.9 |  |  | O=C(CCl)N1CCN(S(=O)(=O)c2ccccc2F)CC1 [compound 10] | isoTOP-ABPP ratio Q8TAQ2_C145 ([4]; 200 μM, insitu, ramos): 20.0
 | 20.0 | 1.0 | 0.9 | 0.9 | 1.2 | COc1ccccc1OCCNC(=O)CCl [compound 28] | 
2.6 | 13.9 | 1.1 |  | 1.2 |  | O=C(CCl)Nc1cccc2ncccc12 [compound 51] | 
 |  |  |  |  | 1.3 | C=CC(=O)N(Cc1cccnc1)c1ccc(Oc2ccccc2)c(C(F)(F)F)c1 [compound 15] | 
0.5 | 1.2 |  |  | 0.8 |  | C=CC(=O)N(Cc1cccnc1)c1cc(C(F)(F)F)cc(C(F)(F)F)c1 [compound 31] | isoTOP-ABPP ratio P10599_C32 ([2]; 200 μM, insitu, ramos): 1.7; isoTOP-ABPP ratio Q13428_C1298 ([3]; 200 μM, insitu, ramos): 2.2; isoTOP-ABPP ratio Q8TAQ2_C145 ([4]; 200 μM, insitu, ramos): 1.1
 |  |  |  |  | 1.0 | O=C(/C=C/c1ccccc1)Nc1cc(C(F)(F)F)cc(C(F)(F)F)c1 [compound 26] | 
